How the values were obtained:
Type in all cases: cell-based
[1] = tested on: human red blood cells (hRBC); experiment: Hemolysis
In short: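 Washed fresh human erythrocytes (20% v/v, about 0.9×10^9 cells/ml final) incubated with peptide at 100 μM for 1 h at 37° C. Supernatant diluted 20-fold and OD540 read. Percent hemolysis relative to 0.1% Triton X-100 in H2O (100%), with PBS alone as 0%.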

[2] = tested on: 'CCR5' cells / Hut/4-3 cells co-cultivation; experiment: FIGS-Assay; details: 200 nM peptide, 48 hours of co-cultivation
Experimental: The assay was performed according to ref. 5, below. Stock dilutions of the peptides (10 mM) were prepared by dissolving in 10 mM Tris-HCl at room temperature. Stock solutions were kept at +4° C., light protected. Working dilutions were prepared extemporaneously by serial dilution in Phosphate Buffered Saline (PBS) and added in a final volume of 10 μl directly to the cell cultures. After 48 hours of co-cultivation the cultures were rinsed with PBS and then exposed to glutaraldehyde/formaldehyde (0.2%/2%) in PBS for five minutes. For photometric quantification the fixed cultures were subsequently incubated with ortho-nitro-phenyl-galactopyranoside (ONPG) as a β-galactosidase substrate, which was enzymatically converted into the chromophore ortho-nitrophenol (ONP). The read out is directly obtained by measuring optical density of wells at 405 nm in an iEMS 96well-plate reader.
(§1) All fine chemicals came from Merck (Darmstadt, Germany).

CCRF-CEM cells = experiment: Chemotactic assay (cell migration assay); details: 1 nM SDF-1, 4 hours
Experimental: as §1
2.7. Chemotactic Assay (Cell Migration Assay)
The chemotactic response of CCRF-CEM cells to a gradient of stromal cell-derived factor 1α (SDF-1) was measured using disposable assay plates from Neuroprobe (5μ pore size) (Gaithersburg, Md.), according to the manufacturer's directions and references therein [especially ref. 8, below]. Briefly, one 175 cm^2 flask was washed once with Dubecco's phosphate buffered saline (DPBS), and trypsinized for 10 minutes or until cells had lifted. The trypsin was neutralized by the addition of fresh medium containing serum and the cells were pelleted, washed once in DPBS, and resuspended at 1-0.5×10^7 cells/ml in RPMI+0.5% bovine serum albumin (BSA). 45 μl of cell suspension were mixed with 5 μl of 10-fold concentrated PEM peptide diluted in the same assay medium. […] The optical absorbance at 595 nm (ABS595) was read using a Tecan Genios plate reader with Magellan software. The number of cells migrated was determined by comparing ABS595 values against a standard curve generated with a known number of cells in the assay plate and were plotted against SDF-1 concentration to obtain a sigmoidal curve and to determine the IC50 values. The values for IC50 were determined using the Trendline function in Microsoft Excel by fitting a logarithmic curve to the averaged datapoints.

## N=C(N)NCCC[C@@H]1NC(=O)[C@@H]2CSSC[C@H](NC(=O)[C@H](Cc3ccc4ccccc4c3)NC(=O)[C@H](CCCNC(=N)N)NC(=O)[C@H](CCCNC(=N)N)NC(=O)[C@H]3CCCN3C(=O)CNC1=O)C(=O)N[C@@H](Cc1ccc(O)cc1)C(=O)N[C@@H](CCCNC(N)=O)C(=O)N[C@@H](CCCCN)C(=O)N1CCC[C@@H]1C(=O)N1CCC[C@H]1C(=O)N[C@@H](Cc1ccc(O)cc1)C(=O)N[C@@H](CCCNC(=N)N)C(=O)N[C@@H](CCCNC(N)=O)C(=O)N2 [Ex. 51]
[1]
  Hemolysis at 100 μM: 0%
[2]
  FIGS % inhibition at 200 nM: 93.9%
CCRF-CEM cells
  IC50: 0.275 µM
